From US8889903B2, “Synthesis of rare earth metal extractant” (Shin-Etsu Chemical Co., Ltd., priority 2010, dated 2014)
Values after ≈ are worked out from the molar mass of the structure shown.

Experiment: Solubility in water
Type: physicochemical
Method: If B/A<1.0, which means an excess of diglycolic anhydride for reaction, the desired dialkyl diglycol amic acid is obtained as the reaction product, in which unreacted diglycolic acid may remain. When solvent extraction is carried out using dialkyl diglycol amic acid having diglycolic acid left therein, no satisfactory separation ability is available and the solution becomes white turbid because clad is formed between organic phase and aqueous phase. […] This is because the diglycolic acid remaining along with the metal extractant, dialkyl diglycol amic acid forms a complex with a rare earth metal ion, inhibiting satisfactory extraction and separation. That is, diglycolic acid becomes an inhibitory factor to extraction. To obtain diglycolic acid-free dialkyl diglycol amic acid as the rare earth metal extractant capable of normal extraction and separation, the step of removing unreacted diglycolic acid is necessary as in the prior art method. Specifically, the water-soluble diglycolic acid must be removed by removing the synthesis medium and washing the reaction product with water. […] In order to use the dialkyl diglycol amic acid in crystallized form as the rare earth metal extractant, filtration and drying steps are needed. The process becomes less efficient because extra steps are necessary as compared with the range of 1.0≦B/A≦1.2.

SMILES: CCCCCCCCN(CCCCCCCC)C(=O)COCC(=O)O [DODGAA, N,N-dioctyl-3-oxapentane-1,5-amic acid]
- solubility in water: 6.2 µM (≈ 2.22 µg/mL)
